The values that follow come from a melting point compilation (Tetko et al.).

`C1COCCNCCOCCOCCN1` gave a melting point of 89 to 92 °C.
With `CC1C(=O)C23C(O)CC4C(C)(C)CC(O)CC4(C)C2CCC1C3O` (stereo not given), the melting point was determined as 377 °C.
`O=C(CBr)c1ccc2ccccc2c1` had a melting point of 82 to 85 °C.
In the case of `CN(C(=O)CN(CCO)CC(=O)N(C)C(C)(C)Cc1ccccc1)C(C)(C)Cc1ccccc1`, the melting point is 104 °C.
Compound `NC(=O)[C@@H]1CC=CC[C@H]1N` (relative stereo) had a melting point of 163 to 167 °C.
The result for `OCc1cc(-c2ccco2)on1` reads 90 to 91 °C; that for `CC(=O)c1ccc([N+](=O)[O-])s1`, 106 °C; that for `N#Cc1ccc(N)c2ccccc12`, 176 °C.
`O=[N+]([O-])c1ccc(/C=N/n2c(S)nnc2C(F)(F)F)cc1`: the melting point came out at 193 °C.
For the compound `CCOC=C(C#N)S(=O)(=O)C(C)(C)C`, the melting point lay within 103 to 105 °C.
The result for `Cc1cc2ncc(C(=O)O)c(C)n2n1` reads 250 to 251 °C; that for `C=C(C)C(=O)OCCN(C)C`, -30 °C.
As to `Cc1ccc2c(c1)CCC(C)C2` (stereo not given), the melting point was 20 °C.
The result for `NC(=O)OCC(Cl)(Cl)Cl` reads 64 °C; that for `CC(O)C(NC(=O)OC(C)(C)C)C(=O)O` (stereo not given), 79 °C; that for `CCOC(=O)c1sc2sc(C(=O)OCC)c(NC(=O)c3ccccc3)c2c1NC(=O)c1ccccc1`, 286 °C.
The result for `N#CC(=Cc1ccc(Cl)cc1)C(N)=O` reads 100 °C; that for `CC=CCCCCC`, -80 °C; that for `Nc1c(Br)cc(Br)cc1C(=O)c1ccccc1`, 98 °C.
With `Cc1cc(C)c(C(=O)P(=O)(c2ccccc2)c2ccccc2)c(C)c1`, the melting point stood at 90 °C.
The result for `O=C1c2ccccc2C(=O)C1(O)C1(O)C(=O)c2ccccc2C1=O` reads 252 °C.
The result for `CC(CC(=O)O)C1CCC2C3CCC4CCCCC4(C)C3CCC12C` (stereo not given) reads 177 °C; that for `Cc1ccc(S(=O)(=O)OC(C(F)(F)F)C(F)(F)F)cc1`, 39 to 40 °C.
Consider `CCc1ccc(NC(N)=S)cc1`, for which the melting point is 138 °C.
Regarding `Cc1n[nH]c(C)c1Br`, the melting point was 121 °C.
The result for `OCCc1ccccc1` reads -27 °C; that for `FC(F)(F)c1cc(Cl)c(I)c(Br)c1`, 29 to 31 °C.
Regarding `NC(=O)c1c(Cl)cc(C(F)(F)F)cc1Cl`, the melting point lay in the range of 166 to 169 °C.
Regarding `CCCCCC(=O)OCC`, the melting point is -67 °C.
The result for `COc1cc(O)c(C=O)c(OC)c1` reads 70 °C; that for `COc1ccc(OC)c(F)c1`, 25 °C.
In turn, `O=C(NCCc1ncc(C(F)(F)F)cc1Cl)c1ccccc1C(F)(F)F` displayed a melting point of 118 °C.
The compound `CN1CCN=C1C(C1=NCCN1C)C1=NCCN1C` registered a melting point of 241 to 243 °C.
In turn, `COc1ccc(N=[N+]([O-])c2ccc(OC)cc2)cc1` registered a melting point of 132 °C.
`CC(=O)c1c(-c2ccccc2)cc2ccccc2c1O` returned a melting point of 55 °C.
Compound `O=C(OCC1c2ccccc2-c2ccccc21)Oc1c(F)c(F)c(F)c(F)c1F` registered a melting point of 85 °C.
The result for `ClC1=C(Cl)C(Cl)(Cl)C(Cl)(Cl)C1(Cl)Cl` reads 40 °C; that for `CNC(=O)Oc1cccc(C(C)C)c1`, 73 °C; that for `COC(=O)c1ccc([N+](=O)[O-])cc1C(=O)OC`, 67 °C.
Consider `C=CCc1cc(OC)c(O)c(C(=O)NCCO)c1`, for which the melting point amounted to 95 °C.
As to `CC(C)Nc1ccc(C(F)(F)F)cc1[N+](=O)[O-]`, the melting point fell in the range of 103 to 105 °C.
`N#Cc1ccnc(N2CCCCC2)c1`: the melting point was 55 to 57 °C.
Regarding `O=C1CCC(c2ccccc2)c2ccccc21` (stereo not given), the melting point was in the range of 73 to 76 °C.
Turning to `O=Cc1cc(-c2cccs2)on1`, the melting point worked out at 66 °C.
The result for `CC(CCC(=O)O)C1CCC2C3C=CC4CCCCC4(C)C3CCC12C` (stereo not given) reads 152 to 160 °C; that for `C=C1C(=O)C23C(OC(C)=O)CC4C(C)(C)CCCC4(COC(C)=O)C2C(OC(C)=O)CC1C3OC(C)=O` (stereo not given), 226 °C; that for `CCCCCCCCCC1CCCCC1`, -10 °C.
The result for `COc1ccc(C(C)=O)cc1O` reads 89.5 °C; that for `C1CCC(N2CCNCC2)CC1`, 28 to 32 °C; that for `CCOP(=S)(OCC)SCSC(C)(C)C`, -29.2 °C.
The compound `Cc1ccc2c3ccccc3c3ccccc3c2c1` yielded a melting point of 100 °C.
The compound `Cn1c(=O)c(C2=Nc3ccccc3SC(c3cccs3)C2)c(O)c2ccccc21` (stereo not given) yielded a melting point of 224 °C.
The result for `O=c1[nH]oc2ccccc12` reads 139 °C; that for `CCC(=O)CC#N`, 29 °C; that for `CC(=O)Oc1c(-c2ccccc2)[nH]c2cc([N+](=O)[O-])c(/C=C/c3ccccc3)cc12`, 224 °C.
`Nc1ccc2[nH]nnc2c1` yielded a melting point of 160 °C.
Consider `CCOC=Nc1c(C#N)cnn1-c1ncnc2c1cnn2C`, for which the melting point worked out at 155 °C.
`Cc1cc(Cc2cc(C)cc(C(C)(C)C)c2O)c(O)c(C(C)(C)C)c1` had a melting point of 123 °C.
With `CN1N=C2c3ccccc3CCC2C1c1ccc(Cl)cc1` (stereo not given), the melting point fell in the range of 199 to 201 °C.
For `COC(=O)c1ccccc1C(=O)O`, the melting point was 83 °C.
The result for `OCCc1ccc2ccccc2n1` reads 103 °C; that for `Nc1ccc(Cn2cncn2)cc1`, 124 to 126 °C.
The result for `O=[N+]([O-])c1c(Br)sc(Br)c1[N+](=O)[O-]` reads 136 °C.
Compound `N#Cc1ccc(OCc2ccc3nonc3c2)cc1` displayed a melting point of 160 to 162 °C.
With `O=C(O)c1cnc(Cl)c(Cl)c1`, the melting point is 163 to 168 °C.
Turning to `N#CC1=C(N)n2nc(C(F)(F)F)nc2NC1c1ccco1` (stereo not given), the melting point stood at 260 °C.
The result for `CC1=NNC(=O)N(N=Cc2cccnc2)C1` reads 217 °C; that for `COc1ccc(C(=O)C2=NOC3C(=O)N(c4ccc(C(=O)O)cc4)C(=O)C23)cc1` (stereo not given), 199 °C.
On to `CC(=O)OCC1OC(n2cc(I)c(=O)[nH]c2=O)CC1OC(C)=O` (stereo not given), for which the melting point lay in the range of 161 to 163 °C.
In turn, `CCOC(=O)c1c(SC)nn(C(=O)c2ccc(OC)cc2)c1N` showed a melting point of 160 °C.
For the compound `CCCCCCCCCCOc1ccc(C(C)=O)cc1OCCCCCCCCCC`, the melting point is 61 to 65 °C.
The result for `Nc1c(Br)cc([N+](=O)[O-])cc1Br` reads 207 °C; that for `N#Cc1ccc(N)c(OC(F)(F)F)c1`, 72 °C.
For the compound `CCCS(=O)(=O)O`, the melting point turned out to be 8 °C.
The result for `O=C(O)c1cccc(C(=O)c2ccccc2)c1` reads 164 °C; that for `CCC(=O)c1cc(F)cc(F)c1`, 26 °C.
With `Cc1onc(-c2c(Cl)cccc2Cl)c1C(=O)NN`, the melting point is 150 to 152 °C.
Consider `CC(=O)OC(OC(C)=O)c1cccc([N+](=O)[O-])c1`, for which the melting point was 72 °C.
For `O=C1CC(c2ccccc2)=NO1`, the melting point lay within 150 to 154 °C.
The result for `CC(C)N1C(=O)N(c2ccccc2)CSC1=NC(C)(C)C` reads 105 °C; that for `CC(=O)C1=CCCCC1`, 73 °C.
`C=CCN(CC=C)C(=O)CCl` returned a melting point of 25 °C.
Compound `Cc1cc(C)c(CC(=O)c2cc3ccccc3o2)c(C)c1` returned a melting point of 172 to 173 °C.
The result for `CCOC(=O)C(=NOC(C)(C)C(=O)OC(C)(C)C)c1csc(N)n1` reads 168 to 174 °C; that for `CC1=Nc2ccccc2C1(C)C#N` (stereo not given), 73 °C.
The result for `O=C1CC(=O)CC(c2ccco2)C1` reads 146 to 149 °C; that for `N#CCc1nc(-c2ccc([N+](=O)[O-])cc2)cs1`, 147 to 148 °C.
`Cc1c(CC(=O)O)sc2ccc(Cl)cc12` displayed a melting point of 177 to 178 °C.
Turning to `O=C(O)c1ccc(C#Cc2ccccc2)o1`, the melting point is 212 to 213 °C.
`CCCCCCCCCCCCCCCCCCCC(=O)OCC`: the melting point amounted to 50 °C.
The compound `N#CCC(=O)OCc1ccccc1` showed a melting point of 28 °C.
The result for `CC(=O)c1cc(C(C)=O)c(O)cc1O` reads 180 °C; that for `CCOC(=O)CC(SP(=S)(OC)OC)C(=O)OCC` (stereo not given), 2.8 °C; that for `COC(=O)c1sccc1N`, 66 to 67 °C.
The result for `CC(=Nc1ccc(N=Nc2ccccc2)cc1)c1c(O)c2ccccc2n(-c2ccccc2)c1=O` reads 191 °C; that for `COc1cc2c(N)nc(N3CCN(C(=O)OCC(C)(C)O)CC3)nc2c(OC)c1OC`, 158 °C.
Regarding `CC(C)c1ccc(Br)cc1`, the melting point is -12 °C.
The result for `CC(=O)C12OC1CC1C3CCC4=CC(=O)CCC4(C)C3C(O)CC12C` (stereo not given) reads 206 °C; that for `COc1cccc2cc(C(=O)c3cc4ccccc4o3)oc12`, 154 to 155 °C.
The result for `Cc1ccc(-c2cc(N/N=C(/C(=O)c3cccs3)C(=O)C(F)(F)F)[nH]n2)cc1` reads 220 °C.
The result for `NC(=O)NN=Cc1ccccc1` reads 231 °C.
Compound `Cc1oc(-c2ccccc2)cc1C(=O)O` had a melting point of 183 °C.
The result for `C=C(C(=O)O)c1ccccc1` reads 106 °C; that for `Cc1ccc([N+](=O)[O-])c(CCl)c1`, 41 to 47 °C; that for `ClCc1nc(-c2ccc(OCc3ccc(Cl)cc3)cc2)no1`, 118 °C.
The result for `CC(=O)OC1CC2C(CCC3(C)C(C(C)CCCC(C)C)CCC23)C2(C)CCC(=O)C=C12` (stereo not given) reads 101 to 102 °C; that for `CCC1CC(NC(=O)CBr)C(C)(C)N1O` (stereo not given), 148 to 150 °C.
In turn, `OCC(CO)(CBr)CBr` gave a melting point of 113 °C.
In turn, `COc1ccc(C(=O)/C=C/c2cccc(OC)c2OC)c(O)c1` registered a melting point of 99.5 °C.
Compound `Cc1cc(C)c(CC#N)c(C)c1` showed a melting point of 78.5 °C.
